For experiment [1], the target named is T1, Ribonuclease pancreatic (Homo sapiens) (UniProt P07998).
T1 sequence (whole entry): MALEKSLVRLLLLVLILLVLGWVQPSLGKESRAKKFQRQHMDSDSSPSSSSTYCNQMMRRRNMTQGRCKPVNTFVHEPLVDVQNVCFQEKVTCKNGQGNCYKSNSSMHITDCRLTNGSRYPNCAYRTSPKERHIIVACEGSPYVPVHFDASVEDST
The experiment can be described thus: Inhibition of RNase A assessed as degradation of 28s and 18s rRNA at 0.412 mM after 6 hrs by agarose gel based assay.

In experiment [2] the target is T1, Ribonuclease pancreatic (Homo sapiens). The experiment can be described thus: Inhibition of RNase A assessed as degradation of 28s and 18s rRNA at 0.476 mM after 6 hrs by agarose gel based assay.

The structures appear in SMILES notation. The source made the active and inactive calls. The rule behind the calls is not given here.

Activity data for four molecules are collected here from ChEMBL document CHEMBL1152246, “Design, synthesis and RNase A inhibition activity of catechin and epicatechin and nucleobase chimeric molecules” (Bioorg Med Chem Lett, 2008).

Take `CCOC(=O)Cn1c(=O)c(C)cn(CCn2cc(CO[C@H]3Cc4c(O)cc(O)cc4O[C@@H]3c3ccc(O)c(O)c3)nn2)c1=O`: the outcome in experiment [1] was inactive.
With `CCOC(=O)Cn1c(=O)c(C)cn(CCn2cc(CO[C@@H]3Cc4c(O)cc(O)cc4O[C@@H]3c3ccc(O)c(O)c3)nn2)c1=O`, the result in experiment [1] was inactive.
Consider `Nc1ncnc2c1ncn2CCn1cc(CO[C@@H]2Cc3c(O)cc(O)cc3O[C@@H]2c2ccc(O)c(O)c2)nn1`, for which the outcome in experiment [2] was Active.
For `Nc1ncnc2c1ncn2CCn1cc(CO[C@H]2Cc3c(O)cc(O)cc3O[C@@H]2c2ccc(O)c(O)c2)nn1`, the result in experiment [2] was Active.
